# According to PubChem BioAssay AID651620 (Broad Institute, 2012):
# Tested on: non-replicating M. tuberculosis, luciferase reporter
# Experiment: inhibitors of non-replicating M. tuberculosis, dose response, luciferase, dry powder (AID 651620)
smiles,measurement,value
[N-]=[N+]=NCCOCCNC(=O)CCCn1cc(CS(=O)c2nnc(-c3ccc(F)cc3)o2)nn1 (stereo unspecified),IC90,125 µM
